In publication PMC7532339, “A cell-based large-scale screening of natural compounds for inhibitors of SARS-CoV-2” (Signal Transduction and Targeted Therapy, 2020):
Read-outs that look alike come from different tables or passages of the source.

What was measured:
Vero-E6 cells = test: Cytotoxicity assay (CCK-8); assay type: cell-based; details: Vero-E6 cells, 48 h, CCK-8
Description: (§1) Vero-E6 cells were seeded in 96-well plates (1 × 10^4 cells per well) and allowed to grow for 24 h before treatment. Then, serial 2-fold dilutions of compounds were added to the cells. At 48 h, the cells were incubated with 10 μL CCK-8 reagent (cell counting kit-8, Bimake) for 1 h at 37 °C. The absorbance at 450 nm was read by a Microplate Reader (Varioskan Flash, Thermo Fisher). Cell viability was expressed as a percentage of the treated cells to the control (untreated) cells. For each compound concentration, three wells were performed in parallel, and the mean values of the cell viability were calculated.

SARS-CoV-2 [1] = test: Antiviral assay (viral RNA in supernatant by qRT-PCR); assay type: cell-based, SARS-CoV-2 (WIV-04)
[2] = Cytotoxicity assay (CCK-8); assay type: cell-based; details: African green monkey
Description: as §1

SARS-CoV-2 [3] = test: CPE-based HTS assay (CPE reduction quantified by CCK-8 cell viability); details: for inhibition at 10 µM: Severe acute respiratory syndrome coronavirus 2, Vero C1008, 48 h, read-out: protection from CPE; for protection against SARS-CoV-2 infection: known inhibitors used as positive controls
SARS-CoV-2 [4] = test: Addition of sodium and potassium assay; assay type: cell-based, SARS-CoV-2 (WIV-04)
[5] = Vero-E6 cells, 48 h, CCK-8, read-out: CC50
[6] = Severe acute respiratory syndrome coronavirus 2, Vero C1008, read-out: EC50
[7] = primary screening, compound 10 µM, Vero-E6 cells, MOI 0.01, 48 hpi
[8] = Severe acute respiratory syndrome coronavirus 2, Vero C1008

C=C1C(=O)O[C@@H]2C[C@@]3(C)CCC[C@H](C)C3=C[C@H]12 [Alantolactone]
CC50 (Vero-E6 cells): 36.7 µM
EC50 (SARS-CoV-2 [1]; read-out: EC50): 1.72 µM

CC(=O)O[C@H]1[C@H]2O[C@]23[C@@H]2CC[C@@H]4C[C@@H](O)CC[C@]4(C)[C@H]2CC[C@]3(C)[C@H]1c1ccc(=O)oc1 [Cinobufagin]
CC50 at 48 h [2, 5]: > 40 µM
EC50 (SARS-CoV-2 [1]; [6]): 0.018 µM

COc1ccc2cc1Oc1ccc(cc1)C[C@H]1c3cc(c(OC)cc3CCN1C)Oc1c(OC)c(OC)cc3c1[C@H](C2)N(C)CC3 [tetrandrine]
inhibition at 10 µM (SARS-CoV-2 [3]; [7]): > 50%

COc1ccc2cc1Oc1ccc(cc1)C[C@H]1c3c(cc4c(c3Oc3cc5c(cc3OC)CCN(C)[C@@H]5C2)OCO4)CCN1C [cepharanthine]
inhibition at 10 µM (SARS-CoV-2 [3]): > 50%

C=C[C@H]1[C@H](O[C@@H]2O[C@H](CO)[C@@H](O)[C@H](O)[C@H]2O)OC=C(C(=O)OC)[C@H]1CCOC(=O)c1cc(O)c(O)c(O)c1 [Cornuside]
CC50 (Vero-E6 cells): > 40 µM
EC50 (SARS-CoV-2 [1]; read-out: EC50): 5.26 µM

COc1cc2c(cc1OC)[C@@H](Cc1ccc(O)c(Oc3cc4c(cc3OC)CCN(C)[C@@H]4Cc3ccc(O)cc3)c1)N(C)CC2 [Liensinine]
CC50 (Vero-E6 cells): 25.4 µM
EC50 (SARS-CoV-2 [1]; read-out: EC50): 2.54 µM

O[C@H]1[C@H]2c3cc4c(cc3CN3CCC(=C[C@@H]1O)[C@H]23)OCO4 [lycorine]
inhibition at 10 µM (SARS-CoV-2 [3]): > 50%

CC(=O)O[C@H]1C[C@]2(O)[C@@H]3CC[C@@H]4C[C@@H](O)CC[C@]4(C)[C@H]3CC[C@]2(C)[C@H]1c1ccc(=O)oc1 [Bufotaline]
CC50 (Vero-E6 cells): > 40 µM
EC50 (SARS-CoV-2 [1]; read-out: EC50): 0.0259 µM

CC(C)=CCc1c(O)ccc(C(=O)/C=C/c2ccc(O)cc2)c1O [isobavachalcone]
inhibition at 10 µM (SARS-CoV-2 [3]; [7]): > 50%

Brusatol
EC50 (SARS-CoV-2 [1]; read-out: EC50): 0.0492 µM

C=C1C(=O)[C@]23[C@H](O)[C@H]1CC[C@H]2[C@@]12CO[C@]3(O)[C@@H](O)[C@@H]1C(C)(C)CC[C@@H]2O [Oridonin]
CC50 at 48 h [2]: > 40 µM
EC50 (SARS-CoV-2 [1]; [6]): 1.46 µM

C=C(C)[C@@H]1CC[C@]2(C)[C@H](CC=C3[C@@H]4[C@@H](C)[C@H](C)CC[C@]4(C)CC[C@]32C)[C@@]1(C)CCC(=O)O [Roburicacid]
CC50 (Vero-E6 cells): > 40 µM
EC50 (SARS-CoV-2 [1]; read-out: EC50): 5.27 µM

COc1cc(/C=C/C=O)ccc1O [Coniferylaldehyde]
CC50 at 48 h [2]: > 40 µM
EC50 (SARS-CoV-2 [1]; [8]): 11 µM

CC(C)=CCc1cc2c(cc1O)O[C@H](c1ccc(O)cc1)CC2=O [bavachin]
inhibition at 10 µM (SARS-CoV-2 [3]; [7]): > 50%

IFN-α
protection against SARS-CoV-2 infection (SARS-CoV-2 [3]; […]): provided protection

COc1ccc2cc1Oc1ccc(cc1)C[C@H]1c3cc(c(OC)cc3CCN1C)Oc1c(O)c(OC)cc3c1[C@H](C2)N(C)CC3 [fangchinoline]
inhibition at 10 µM (SARS-CoV-2 [3]): > 50%

C=C1C(=O)O[C@@H]2C[C@@]3(C)CCCC(=C)[C@@H]3C[C@H]12 [Isoalantolactone]
CC50 at 48 h [2, 5]: > 40 µM
EC50 (SARS-CoV-2 [1]; [6]): 1.48 µM

C[C@]12CC[C@H](O)C[C@H]1CC[C@@H]1[C@@H]2CC[C@]2(C)[C@@H](c3ccc(=O)oc3)CC[C@]12O [Bufalin]
inhibition at 10 µM (SARS-CoV-2 [3]): > 50%
inhibitory effect on SARS-CoV-2 with added extracellular KCl (SARS-CoV-2 [4]): suppressed by KCl
inhibitory effect on SARS-CoV-2 with added extracellular NaCl (SARS-CoV-2 [4]): enhanced by NaCl
CC50 at 48 h [2, 5]: > 40 µM
EC50 (SARS-CoV-2 [1]; [6]): 0.018 µM

COC(=O)[C@H]1[C@H]2C[C@@H]3c4[nH]c5cc(OC)ccc5c4CCN3C[C@H]2C[C@@H](OC(=O)c2cc(OC)c(OC)c(OC)c2)[C@@H]1OC [reserpine, reference compound]
inhibition at 10 µM (SARS-CoV-2 [3]; [7]): > 50%

COc1ccc(C(=O)O[C@H]2CC[C@@]3(C)[C@@H]4CC[C@H]5[C@]6(O)C[C@H](O)[C@@]7(O)[C@@H](CN8C[C@@H](C)CC[C@H]8[C@@]7(C)O)[C@]6(O)C[C@@]53O[C@]24O)cc1OC [Veratridine]
CC50 at 48 h [2, 5]: > 100 µM
EC50 (SARS-CoV-2 [1]; [6]): 2.38 µM

COc1ccc(C[C@@H]2c3cc(Oc4cc(C[C@@H]5c6cc(O)c(OC)cc6CCN5C)ccc4O)c(OC)cc3CCN2C)cc1 [Isoliensinine]
CC50 at 48 h [2]: 40 µM
EC50 (SARS-CoV-2 [1]; [6]): 1.61 µM

COC(=O)[C@@]12OC[C@]34[C@H]([C@@H](O)[C@@H]1O)[C@@]1(C)CC(=O)C(O)=C(C)[C@@H]1C[C@H]3OC(=O)[C@H](OC(=O)CC(C)C)[C@@H]24 [Bruceine A]
CC50 at 48 h [2]: 31.4 µM
EC50 (SARS-CoV-2 [1]; [8]): 0.011 µM

CB6: neutralizing human antibody CB6
protection against SARS-CoV-2 infection (SARS-CoV-2 [3]; […]): provided protection

CCN(CC)CCCC(C)Nc1ccnc2cc(Cl)ccc12 (centres unmarked) [chloroquine, reference compound]
EC50 (SARS-CoV-2 [3]; Severe acute respiratory syndrome coronavirus 2, Vero C1008, Vero-E6 cells, MOI 0.01, 48 hpi, CCK-8, read-out: EC50 (inhibition of CPE)): 2.65 µM
protection against SARS-CoV-2 infection (SARS-CoV-2 [3]; Vero-E6 cells, MOI 0.01, 48 h): provided protection
EC50 (SARS-CoV-2 [1]; Severe acute respiratory syndrome coronavirus 2, Vero C1008, 48 h, read-out: EC50 determined by viral RNA copies): 1.78 µM

Cc1coc2c1C(=O)C(=O)c1c-2ccc2c1CCCC2(C)C [tanshinone IIA]
inhibition at 10 µM (SARS-CoV-2 [3]; [7]): > 50%

CC1(C)CC[C@]2(C(=O)O)CC[C@]3(C)C(=CC[C@@H]4[C@@]5(C)CC[C@H](O[C@@H]6O[C@H](C(=O)O)[C@@H](O)[C@H](O[C@@H]7OC[C@@H](O)[C@H](O)[C@H]7O)[C@H]6O)C(C)(C)[C@@H]5CC[C@]43C)[C@@H]2C1 [Momordinic]
CC50 (Vero-E6 cells): > 40 µM
EC50 (SARS-CoV-2 [1]; read-out: EC50): 3.53 µM

C[C@H]1O[C@@H](O[C@H]2[C@@H](O)C[C@H](O[C@H]3[C@@H](O)C[C@H](O[C@H]4CC[C@@]5(C)[C@H](CC[C@@H]6[C@@H]5C[C@@H](O)[C@]5(C)[C@@H](C7=CC(=O)OC7)CC[C@]65O)C4)O[C@@H]3C)O[C@@H]2C)C[C@H](O)[C@@H]1O [Digoxin, reference compound]
inhibition at 10 µM (SARS-CoV-2 [3]): > 50%
CC50 at 48 h [2, 5]: > 40 µM
EC50 (SARS-CoV-2 [1]; [6]): 0.154 µM

C[C@H]1COC2=C1C(=O)C(=O)c1c2ccc2c1CCCC2(C)C [Cryptotanshinone]
inhibition at 10 µM (SARS-CoV-2 [3]): > 50%
CC50 at 48 h [2, 5]: > 100 µM
EC50 (SARS-CoV-2 [1]; [6]): 5.02 µM

C=C1CC[C@H]2C(=C)CC[C@H]3C(=C)C(=O)O[C@@H]3[C@@H]12 [Dehydrocostus lactone]
CC50 at 48 h [2]: 36.2 µM
EC50 (SARS-CoV-2 [1]; [6]): 2.32 µM

CO[C@H]1C[C@H](O[C@H]2CC[C@]3(C)[C@H]4CC[C@]5(C)[C@@H](C6=CC(=O)OC6)CC[C@]5(O)[C@@H]4CC[C@]3(O)C2)O[C@H](C)[C@H]1O[C@@H]1O[C@H](CO)[C@@H](O)[C@H](O)[C@H]1O [Periplocoside]
CC50 (Vero-E6 cells): > 40 µM
EC50 (SARS-CoV-2 [1]; read-out: EC50): 0.0657 µM

C/C=C/c1cc(OC)c2c(c1)C(C)C(c1ccc(O)c(OC)c1)O2 (centres unmarked) [Dehydrodiisoeugenol]
CC50 (Vero-E6 cells): > 100 µM
EC50 (SARS-CoV-2 [1]; read-out: EC50): 10.3 µM

CC(C)=CCc1cc2c(cc1O)oc(=O)c1c3ccc(O)cc3oc21 [psoralidin]
protection from CPE (SARS-CoV-2 [3]): > 50%

CCC(CC)COC(=O)[C@H](C)N[P@](=O)(OC[C@H]1O[C@@](C#N)(c2ccc3c(N)ncnn23)[C@H](O)[C@@H]1O)Oc1ccccc1 [remdesivir, reference compound]
protection against SARS-CoV-2 infection (SARS-CoV-2 [3]; Vero-E6 cells, MOI 0.01, 48 h): provided protection
